In patent US9708316B2 (BRISTOL-MYERS SQUIBB COMPANY, priority 2014, dated 2017):

Tests used:
HIS-TGFβR1 T204D = molecular target: T1, HIS-TGFβR1 T204D (Homo sapiens, UniProt P36897, T204D); test: HTRF probe-displacement assay, HIS-TGFβR1 T204D; type: binding; conditions: read-out: TGFβR1 (μM) IC50
T1 sequence (P36897 34-503 T204D): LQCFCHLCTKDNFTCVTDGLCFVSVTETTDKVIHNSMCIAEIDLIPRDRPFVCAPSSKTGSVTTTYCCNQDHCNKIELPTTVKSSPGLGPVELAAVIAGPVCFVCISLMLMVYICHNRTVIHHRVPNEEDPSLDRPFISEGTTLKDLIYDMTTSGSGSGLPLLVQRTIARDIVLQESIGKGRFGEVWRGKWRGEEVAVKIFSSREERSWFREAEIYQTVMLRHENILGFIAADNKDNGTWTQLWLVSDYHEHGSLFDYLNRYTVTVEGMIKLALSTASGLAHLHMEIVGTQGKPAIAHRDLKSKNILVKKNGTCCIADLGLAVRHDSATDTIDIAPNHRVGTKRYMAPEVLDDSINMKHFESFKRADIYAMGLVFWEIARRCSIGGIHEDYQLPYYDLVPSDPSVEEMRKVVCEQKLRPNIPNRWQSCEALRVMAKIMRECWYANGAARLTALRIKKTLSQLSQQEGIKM

HIS-TGFβR2 WT = HIS-TGFβR2 WT (Homo sapiens, UniProt P37173); test: HTRF probe-displacement assay, HIS-TGFβR2 WT; type: binding
Sequence of HIS-TGFβR2 WT (P37173 23-567): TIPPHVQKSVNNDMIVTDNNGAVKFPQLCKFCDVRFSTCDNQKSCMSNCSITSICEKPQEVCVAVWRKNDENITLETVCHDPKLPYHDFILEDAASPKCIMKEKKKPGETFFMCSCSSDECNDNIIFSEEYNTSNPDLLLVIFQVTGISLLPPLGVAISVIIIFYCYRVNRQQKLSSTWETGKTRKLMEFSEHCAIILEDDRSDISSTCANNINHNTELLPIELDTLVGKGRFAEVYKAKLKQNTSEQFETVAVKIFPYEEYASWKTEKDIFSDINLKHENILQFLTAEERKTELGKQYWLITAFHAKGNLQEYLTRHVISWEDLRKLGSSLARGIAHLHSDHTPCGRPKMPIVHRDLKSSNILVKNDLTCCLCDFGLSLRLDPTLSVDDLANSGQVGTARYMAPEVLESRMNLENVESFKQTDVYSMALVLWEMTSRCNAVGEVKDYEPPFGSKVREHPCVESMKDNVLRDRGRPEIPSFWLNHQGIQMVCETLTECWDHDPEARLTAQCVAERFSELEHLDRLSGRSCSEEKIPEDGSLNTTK

| Structure (SMILES) | IC50 (HIS-TGFβR1 T204D) [µM] | IC50 (HIS-TGFβR2 WT) [µM] |
| --- | --- | --- |
| CNCc1ccnc2c(-c3cccc(C(F)F)n3)c(-c3ccnc(NC(C)=O)c3)[nH]c12 [Example 151, N-(4-{3-[6-(Difluoromethyl)pyridin-2-yl]-7-[(methylamino)methyl]-1H-pyrrolo[3,2-b]pyridin-2-yl}pyridin-2-yl)acetamide] | 0.01 | > 15 |
| CC(=O)Nc1cc(-c2[nH]c3cccnc3c2-c2ccc(F)c(C)n2)ccn1 [Example 23, N-{4-[3-(5-Fluoro-6-methylpyridin-2-yl)-1H-pyrrolo[3,2-b]pyridin-2-yl]pyridin-2-yl}acetamide] | 0.003 | 0.68 |
| COc1ccc(-c2c(-c3ccnc(NC(C)=O)c3)[nH]c3cc(N4CCC[C@H]4CO)cnc23)nc1 [Example 162, (S)-N-(4-(6-(2-(Hydroxymethyl)pyrrolidin-1-yl)-3-(5-methoxypyridin-2-yl)-1H-pyrrolo[3,2-b]pyridin-2-yl)pyridin-2-yl)acetamide] | 0.0279 | > 15 |
| CC(=O)Nc1cc(-c2[nH]c3cccnc3c2-c2ccnc(C#N)c2)ccn1 [Example 190, N-(4-(3-(2-Cyanopyridin-4-yl)-1H-pyrrolo[3,2-b]pyridin-2-yl)pyridin-2-yl)acetamide] | 0.0443 | 7.56 |
| CC(=O)Nc1cc(-c2[nH]c3cccnc3c2-c2ccc(Cl)c(C)n2)ccn1 [Example 33, N-{4-[3-(5-Chloro-6-methylpyridin-2-yl)-1H-pyrrolo[3,2-b]pyridin-2-yl]pyridin-2-yl}acetamide] | 0.005 | > 15 |
| COc1ccc(-c2c(-c3ccnc(NC(C)=O)c3)[nH]c3cc(C(=O)C(F)(F)F)cnc23)nc1 [Example 296, N-(4-(3-(5-Methoxypyridin-2-yl)-6-(2,2,2-trifluoroacetyl)-1H-pyrrolo[3,2-b]pyridin-2-yl)pyridin-2-yl)acetamide] | 0.002 | 7.78 |
| CC(=O)Nc1cc(-c2[nH]c3cc(Cl)cnc3c2-c2nc(CO)cs2)ccn1 [Example 178, N-(4-(6-Chloro-3-(4-(hydroxymethyl)thiazol-2-yl)-1H-pyrrolo[3,2-b]pyridin-2-yl)pyridin-2-yl)acetamide] | 0.0035 | 0.176 |
| COc1ncc(-c2c(-c3ccnc(NC(C)=O)c3)[nH]c3cccnc23)cn1 [Example 27, N-{4-[3-(2-Methoxypyrimidin-5-yl)-1H-pyrrolo[3,2-b]pyridin-2-yl]pyridin-2-yl}acetamide] | 0.72 | > 15 |
| CC(=O)Nc1cc(-c2[nH]c3c(C(C)O)ccnc3c2-c2nc(C(F)(F)F)cs2)ccn1 (centres unmarked) [Example 231, N-(4-(7-(1-Hydroxyethyl)-3-(4-(trifluoromethyl)thiazol-2-yl)-1H-pyrrolo[3,2-b]pyridin-2-yl)pyridin-2-yl)acetamide] | 0.001 | 9.11 |
| COc1ccc(-c2c(-c3ccnc(NC(C)=O)c3)[nH]c3cc(C#N)cnc23)nc1 [Example 92, N-{4-[6-Cyano-3-(5-methoxypyridin-2-yl)-1H-pyrrolo[3,2-b]pyridin-2-yl]pyridin-2-yl}acetamide] | 0.002 | > 15 |
| CC(=O)Nc1cc(-c2[nH]c3cccnc3c2-c2cccc3ccncc23)ccn1 [Example 19, N-{4-[3-(Isoquinolin-8-yl)-1H-pyrrolo[3,2-b]pyridin-2-yl]pyridin-2-yl}acetamide] | 0.023 | 0.19 |
| CC(=O)Nc1cc(-c2[nH]c3c(C)ccnc3c2-c2ncc(C)s2)ccn1 [Example 218, N-(4-(7-Methyl-3-(5-methylthiazol-2-yl)-1H-pyrrolo[3,2-b]pyridin-2-yl)pyridin-2-yl)acetamide] | 0.0017 | 0.594 |
| CCOc1ccc(-c2c(-c3ccnc(NC(C)=O)c3)[nH]c3cc(Cl)cnc23)cn1 [Example 258, N-(4-(6-Chloro-3-(6-ethoxypyridin-3-yl)-1H-pyrrolo[3,2-b]pyridin-2-yl)pyridin-2-yl)acetamide] | 0.002 | 6.29 |
| CC(=O)Nc1cc(-c2[nH]c3cccnc3c2-c2cccc(Cl)n2)ccn1 [Example 3, N-{4-[3-(6-Chloropyridin-2-yl)-1H-pyrrolo[3,2-b]pyridin-2-yl]pyridin-2-yl}acetamide] | 0.001 | 0.089 |
| CC(=O)Nc1cc(-c2[nH]c3cccnc3c2-c2cccc3cccnc23)ccn1 [Example 21, N-{4-[3-(Quinolin-8-yl)-1H-pyrrolo[3,2-b]pyridin-2-yl]pyridin-2-yl}acetamide] | 1.49 | > 15 |
| CC(=O)Nc1cc(-c2[nH]c3cc(F)cnc3c2-c2ncc(Cl)s2)ccn1 [Example 206, N-(4-(3-(5-Chlorothiazol-2-yl)-6-fluoro-1H-pyrrolo[3,2-b]pyridin-2-yl)pyridin-2-yl)acetamide] | 0.0068 | 0.325 |

| Structure (SMILES) | IC50 (HIS-TGFβR1 T204D) [µM] | IC50 (HIS-TGFβR2 WT) [µM] |
| --- | --- | --- |
| COc1ccc(-c2c(-c3ccnc(NC(C)=O)c3)[nH]c3cc(C#N)cnc23)cn1 [Example 78, N-(4-(6-Cyano-3-(6-methoxypyridin-3-yl)-1H-pyrrolo[3,2-b]pyridin-2-yl)pyridin-2-yl)acetamide] | 0.003 | 0.16 |
| CC(=O)Nc1cc(-c2[nH]c3cccnc3c2-c2ccc(C(F)(F)F)nc2)ccn1 [Example 13, N-(4-{3-[6-(Trifluoromethyl)pyridin-3-yl]-1H-pyrrolo[3,2-b]pyridin-2-yl}pyridin-2-yl)acetamide] | 0.002 | > 15 |
| O=C(CN1CCN(CCO)CC1)Nc1cc(-c2[nH]c3cc(Cl)cnc3c2-c2ccc(F)cn2)ccn1 [Example 246, N-(4-(6-Chloro-3-(5-fluoropyridin-2-yl)-1H-pyrrolo[3,2-b]pyridin-2-yl)pyridin-2-yl)-2-(4-(2-hydroxyethyl)piperazin-1-yl)acetamide] | 0.001 | 5.99 |
| COc1ccc(-c2c(-c3ccnc(NC(=O)CN4CCOCC4)c3)[nH]c3cc(Cl)cnc23)nc1 [Example 250, N-(4-(6-Chloro-3-(5-methoxypyridin-2-yl)-1H-pyrrolo[3,2-b]pyridin-2-yl)pyridin-2-yl)-2-morpholinoacetamide] | 0.007 | > 15 |
| O=C(CNCCO)Nc1cc(-c2[nH]c3cc(Cl)cnc3c2-c2ccc(F)cn2)ccn1 [Example 75, N-{4-[6-Chloro-3-(5-fluoropyridin-2-yl)-1H-pyrrolo[3,2-b]pyridin-2-yl]pyridin-2-yl}-2-[(2-hydroxyethyl)amino]acetamide] | 0.005 | 1.03 |
| CC(=O)Nc1cc(-c2[nH]c3cccnc3c2-c2ncc(C)s2)ccn1 [Example 202, N-(4-(3-(5-Methylthiazol-2-yl)-1H-pyrrolo[3,2-b]pyridin-2-yl)pyridin-2-yl)acetamide] | 0.0015 | 0.225 |
| CCOc1ccnc2c(-c3cccc(C(F)F)n3)c(-c3ccnc(NC(C)=O)c3)[nH]c12 [Example 125, N-(4-{3-[6-(Difluoromethyl)pyridin-2-yl]-7-ethoxy-1H-pyrrolo[3,2-b]pyridin-2-yl}pyridin-2-yl)acetamide] | 0.003 | > 15 |
| COc1ccc(-c2c(-c3ccnc(NC(C)=O)c3)[nH]c3cc(N4CCC[C@@H]4CO)cnc23)nc1 [Example 163, (R)-N-(4-(6-(2-(Hydroxymethyl)pyrrolidin-l-yl)-3-(5-methoxypyridin-2-yl)-1H-pyrrolo[3,2-b]pyridin-2-yl)pyridin-2-yl)acetamide] | 0.0304 | > 15 |
| CC(=O)Nc1cc(-c2[nH]c3cccnc3c2-c2nc(C)ccc2F)ccn1 [Example 107, N-(4-(3-(3-Fluoro-6-methylpyridin-2-yl)-1H-pyrrolo[3,2-b]pyridin-2-yl)pyridin-2-yl)acetamide] | 0.001 | 8.14 |
| CC(=O)Nc1cc(-c2[nH]c3cc(Cl)cnc3c2-c2ccc(Cl)cn2)ccn1 [Example 46, N-{4-[6-Chloro-3-(5-chloropyridin-2-yl)-1H-pyrrolo[3,2-b]pyridin-2-yl]pyridin-2-yl}acetamide] | 0.008 | > 15 |
| COc1ccc2[nH]c(-c3ccnc(NC(C)=O)c3)c(-c3cccc(Cl)n3)c2n1 [Example 77] | 0.033 | > 15 |
| COc1ccc(-c2c(-c3ccnc(NC(C)=O)c3)[nH]c3cc(N4CCC(NC(C)=O)CC4)cnc23)nc1 [Example 159, N-(4-(6-(4-Acetamidopiperidin-1-yl)-3-(5-methoxypyridin-2-yl)-1H-pyrrolo[3,2-b]pyridin-2-yl)pyridin-2-yl)acetamide] | 0.0311 | > 15 |
| COc1ccnc2c(-c3cccc(C(F)F)n3)c(-c3ccnc(NC(C)=O)c3)[nH]c12 [Example 267, N-(4-(3-(6-(Difluoromethyl)pyridin-2-yl)-7-methoxy-1H-pyrrolo[3,2-b]pyridin-2-yl)pyridin-2-yl)acetamide] | 0.002 | > 15 |
| CC(=O)Nc1cc(-c2[nH]c3c(C)ccnc3c2-c2csc(C)n2)ccn1 [Example 221, N-(4-(7-Methyl-3-(2-methylthiazol-4-yl)-1H-pyrrolo[3,2-b]pyridin-2-yl)pyridin-2-yl)acetamide] | 0.0037 | 1.36 |
| O=C(CN1CCC(O)CC1)Nc1cc(-c2[nH]c3cc(Cl)cnc3c2-c2ccc(F)cn2)ccn1 [Example 244, N-(4-(6-Chloro-3-(5-fluoropyridin-2-yl)-1H-pyrrolo[3,2-b]pyridin-2-yl)pyridin-2-yl)-2-(4-hydroxypiperidin-1-yl)acetamide] | 0.003 | 7.82 |
